Read-outs that look alike come from different tables or passages of the source.
Tests used:
E. coli GmhA = E. coli GmhA (Escherichia coli, UniProt P63224); format: biochemical; settings: for IC50: E. coli GmhA, luminescence assay, mean ± SD of at least 3 independent experiments
Method: The assay buffer “AB” contained 50 mM HEPES, pH 7.5, 1 mM MnCl2, 25 mM KCl, 0.012% Triton-X100, 1 mM dithiothreitol (DTT), and 0.1 μM myelin basic protein (MBP, Sigma, ref M1891). The following components were added in a white polystyrene Costar plate up to a final volume of 30 μL: 10 μL of inhibitor dissolved in DMSO/water 50/50 and 20 μL of GmhA of E. coli in AB. After 30 min of preincubation at room temperature, 30 μL of the substrate mixture in AB were added in each well to give a final volume of 60 μL. […] After 30 min of incubation at room temperature, 100 μL of the revelation mix were added to a final volume of 160 μL, including the following constituents at the respective final concentrations: 10,000 light units/mL luciferase (Sigma), 20 μM D-luciferin (Sigma), and 100 μM N-acetylcysteamine (Aldrich). Luminescence intensity was immediately measured on a Luminoskan instrument (Thermofisher) and converted into inhibition percentages. For IC50 determinations, the inhibitor was tested at 6 to 10 different concentrations, and the related inhibitions were fitted using XLFit 5 (IDBS) to a classical Langmuir equilibrium model with Hill slope, according to the equation: %inhibition = 100 c^n/(c^n + IC50^n), where c is the compound concentration and n is the Hill coefficient.

[1] = test system: E. coli C7 (018:K1:H7) LPS biosynthesis; experiment: Inhibition of bacterial LPS biosynthesis (silver-stained LPS SDS-PAGE); format: cell-based; settings: for EC50: Escherichia coli
Method: The compounds to be tested were prepared in deionized water/DMSO (50/50) solutions and added (25 μL) in sterile culture microtubes. The test bacterial isolate was isolated on tryptic soy agar (TSA) overnight. Isolated colonies were cultured in 10 mL of LB medium at 37 °C up to an OD of typically 0.15. These exponentially growing bacteria were finally diluted to 5 × 10^5 cfu/mL and added in each well (225 μL) for incubation with the compounds at 37 °C for approximately 5 h, up to an OD of ≈0.2–0.4. Some test compounds, e.g., phospho-sugars are actively transported into the bacterial cytosol via the phospho-sugar transporter UhpT (Figure S3). 2.5 μL portion of a 10 mM water solution of glucose-6-phosphate (G6P, 100 μM final concentration, from Sigma) was added in the culture tube in order to induce UhpT expression. LPS extraction: Bacterial cultures were normalized via OD determination, pelleted, and washed with 1 mL of phosphate-buffered-saline (PBS). The pellets were then denatured for 10 min at 95–100 °C in 50 μL of 0.2% sodium dodecyl sulfate (SDS), β-mercaptoethanol 1%, glycerol 36%, Tris 30 mM, pH 7.4, and bromophenol blue 0.001%. Samples were cooled down to room temperature, supplemented with 1.5 μL of proteinase K at 20 mg/mL, incubated for 1 h at 55 °C, and centrifuged for 30 min at 13,000 rpm at 25 °C. The resulting supernatant, containing LPS, was finally analyzed by SDS-PAGE electrophoresis. LPS SDS-PAGE electrophoresis: Polyacrylamide gels (16%/4% acrylamide for separation and concentration, respectively) were prepared, loaded with 8 μL of LPS extracts, and migrated. Silver staining: Gels were incubated overnight in 5% acetic acid/40% ethanol/deionized water, treated by 1% periodic acid/5% acetic acid for 15 min, washed 4 times for 10 min in deionized water, and finally incubated for 18 min in the dark in a silver nitrate solution composed of 56 mL of 0.1 M NaOH (56 mL), 33% aq ammonia (4 mL), 5% AgNO3 (45 mL), and deionized water (195 mL). Gels were then washed extensively in deionized water for 30 min and incubated for 10–15 min (up to LPS band appearance) in the revelation mix composed of 300 mL of deionized water (300 mL), 36.5% formaldehyde (0.3 mL, Fluka), and 2.3 M citric acid (0.1 mL). The revelation was stopped by incubating the gels in 10% acetic acid for 5 min. Gels were finally washed in deionized water, numerized with a Samsung PL51 camera, and analyzed by ImageJ software. The percentage of inhibition of LPS heptosylation was defined as the relative area of the Re-LPS band compared to the cumulated areas of Re-LPS and Core-LPS bands.

HepG2 cytotoxicity = format: cell-based; settings: human; n = 2
Method: HepG2 cells (LGC Promochem, ref HB-8065) in EMEM medium supplemented with fetal bovine serum (10%), Ampicillin (100 mg/L), and Streptomycin (100 mg/L) were plated on cell culture plates (Costar 3596, 2 × 10^4 cells/well) and incubated overnight at 37 °C in 5% CO2. The culture medium was then aspirated and replaced by supplemented EMEM (210 μL including 2% DMSO) containing dilutions of compounds. Plates were incubated overnight at 37 °C in 5% CO2. Cell viability was determined by the Celltiter Aqueous One Cell Proliferation Assay (G3581–80, Promega) according to the manufacturer’s recommendations, using a Multiskan absorption reader (490 nm).

E. coli C7 [2] = experiment: Sensitization to killing by the complement of human serum; format: cell-based; settings: E. coli C7 grown 5 h with 0.3 and 1 mM compound 24; in 30 min
Method: The E. coli C7 wild type and gmhA-deleted strains were isolated from TSA plates and grown overnight in 10 mL of LB broth at 35 °C. […] After 5 h of incubation under shaking at 37 °C, the bacterial inoculum was adjusted to 10^5 cfu/mL in 20% LB broth mixed with 80% human serum (Biopredic) and filtered on 0.45 μm pore size membranes and used as such, or further heated for 30 min at 56 °C for complement deactivation. A volume of 250 μL of each condition was finally incubated at 37 °C in microtubes, and aliquots of 10 μL were sampled at 0, 15, 30, 60, 120, and 180 min for bacterial enumeration in duplicate.

E. coli C7 [3] = experiment: MIC of the compounds alone on E. coli C7; format: cell-based
Method: Then, we investigated the cytotoxicity and the ability of such inhibitors to potentiate the antimicrobial activity of macrolide and rifamycin antibiotics.
(§1) The compound to be tested was diluted in 50 mM HEPES buffer (pH 7.4) from 10 mM stock solution in DMSO. Five microliters of compound dilution or buffer were distributed in a sterile clear round-bottom 96-well polystyrene microplate (Corning). Five microliters of serial 2-fold dilutions of reference antibiotics [Erythromycin (Fluka), Rifampicin (Fluka)] in DMSO were added. An exponentially growing preculture of E. coli C7 (O18:K1:H7) in LB was diluted to 10^4 cfu/mL and supplemented with 100 μM G6P, and 90 μL of this suspension were added to the microplates. After overnight incubation at 37 °C, the MIC of the antibiotics were determined for each test compound concentration as the lowest antibiotic concentration for which no bacterial pellet is visible without magnification.

E. coli C7 (O18:K1:H7) [4] = experiment: MIC determination of antibiotics combined with a GmhA inhibitor; format: cell-based; settings: Escherichia coli, n = 1
Method: as §1

E. coli C7 gmhA- = experiment: Complementation of E. coli C7-gmhA- by H7P (LPS SDS-PAGE, UhpT transport); format: cell-based
Method: Figure S3: Role of UhpT phospho-sugar transporter in the transport of D-glycero-D-manno-heptose
7-phosphate (H7P). Complementation of E. coli C7-gmhA- by the GmhA product H7P. Silver-stained
LPS SDS-PAGE of E. coli C7 WT (lane 1) or gmhA- (lanes 2 -4). Culture in presence of 300 µM H7P (lane
100 µM glucose -6-phosphate (G6P) allows a strong transport of H7P, as evidenced by the restoration
(1 picture or pasted object on this page, not shown here)

E. coli C7 (O18:K1:H7) [5] = experiment: Time-kill kinetics of rifampicin in combination with compound 17; format: cell-based; settings: 17 300 μM alone or rifampicin 1 mg/L alone
Method: Rifampicin (Fluka) was diluted in DMSO, and the compound to be tested was diluted in water from 50 mM stock solution in 50 mM HEPES buffer, pH 7.4. Ten microliter of DMSO was distributed in sterile 1.5 mL polypropylene microtubes (Eppendorf). 2.5 μL of compound dilution or water, 2.5 μL of Rifampicin or DMSO, 2.5 μL of 10 mM G6P in water (100 μM final concentration), and 230 μL of LB were added to the microtubes. E. coli C7 (O18:K1:H7) was grown in 5 mL of LB broth at 37 °C until mid-log phase. The suspension was then diluted in LB to obtain a 100× inoculum of 5 × 10^7 cfu/mL, 2.5 μL of which were added to each microtube (5 × 10^5 cfu/mL final inoculum). The microtubes were incubated at 37 °C, and aliquots of 10 μL were sampled at 0, 2, 4, 6, 8, and 24 h for bacterial enumeration in duplicate.

GmhA = test system: GmhA; design: method as in PMID 21922563; settings: cited from earlier work
wild-type E. coli strain = test system: wild-type E. coli strain; design: method as in PMID 21922563; settings: cited from earlier work
[6] = E. coli C7 LPS biosynthesis by SDS-PAGE, mean ± SD of 3 experiments for 17 and 24, n = 1 for others, read-out: EC50
[7] = antibiotic alone, E. coli C7, 100 μM G6P, read-out: MIC alone
[8] = antibiotic combined with 100 μM 17, E. coli C7, 100 μM G6P, read-out: MIC +100 μM cpd 17

E. coli GmhA, sequence (P63224 whole entry): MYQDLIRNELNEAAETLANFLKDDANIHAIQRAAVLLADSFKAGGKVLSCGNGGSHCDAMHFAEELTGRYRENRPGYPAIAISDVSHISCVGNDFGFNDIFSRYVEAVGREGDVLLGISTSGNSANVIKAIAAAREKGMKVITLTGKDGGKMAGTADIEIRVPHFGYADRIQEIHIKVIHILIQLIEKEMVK

`O=CN(O)C[C@H](O)[C@H](O)[C@H](O)CP(=O)(O)O` [Compound 20] gave an IC50 (E. coli GmhA) of 2200 ± 500 nM and an EC50 [1, 6] of over 3000 µM.

In the case of `O=CN(O)C[C@H](O)[C@H](O)[C@H](O)CCP(=O)([O-])O.[Na+]` [Compound 24], the EC50 [1] is reported as 22 ± 4 µM, the CC50 (HepG2 cytotoxicity) is reported as over 1 mM and the “reduction of the bacterial load in 80% human serum” value (E. coli C7 [2]) is reported as 3 log. For the same compound, the MIC (E. coli C7 [3]; Escherichia coli, C7, read-out: MIC E. coli C7) was over 1000 µM and the MIC (E. coli C7 [3]; compound alone, n = 2, read-out: MIC E. coli C7) was over 1000 µM.

In the case of `O=CN(O)C[C@H](O)[C@H](O)[C@H](O)/C=C/P(=O)(O)O` [Compound 25], the IC50 (E. coli GmhA) is reported as 150 ± 30 nM and the EC50 [1] is reported as 1300 µM.

`O=CN(O)C[C@H](O)[C@H](O)[C@H](O)C(O)C(O)P(=O)(O)O` (some centres unmarked) [Compound 27] showed an IC50 (E. coli GmhA) of 2300 ± 600 nM and an EC50 [1] of over 3000 µM.

With `O=CN(O)C[C@H](O)[C@H](O)[C@H](O)C(O)CP(=O)(O)O` (some centres unmarked) [Compound 31] the IC50 (E. coli GmhA) was 250 ± 20 nM and the EC50 [1] was 590 µM.

Compound `O=CN(O)C[C@H](O)[C@H](O)[C@H](O)CC(O)P(=O)(O)O` (some centres unmarked) [Compound 41] has an IC50 (E. coli GmhA) of 75 ± 9 nM and an EC50 [1] of 750 µM.

Work on `O=CN(O)C[C@@H](O)[C@H](O)[C@H](O)CCP(=O)(O)O` [Compound 54] yielded an IC50 (E. coli GmhA) of 9200 ± 1600 nM and an EC50 [1] of over 300 µM.

Compound `O=CN(O)C[C@H](O)C[C@H](O)CCP(=O)(O)O` [Compound 68] has an IC50 (E. coli GmhA) of 3000 ± 200 nM and an EC50 [1, 6] of 1200 µM.

With `O=CN(O)C[C@H](O)[C@H](O)[C@H](O)CC(F)P(=O)([O-])O.[Na+]` (some centres unmarked) [Compound 76] the “GmhA inhibition IC50 (in words)” value (E. coli GmhA) was “low nanomolar range” and the EC50 [1] was 76 µM.

Compound `O=CN(O)C[C@H](O)[C@H](O)[C@H](O)CC(F)(F)P(=O)(O)O` [Compound 84] has an EC50 [1] of 510 µM.

In the case of `O=C(NO)[C@@H](O)[C@H](O)[C@H](O)[C@H](O)COP(=O)(O)O` [Compound 96], the “GmhA inhibition IC50 (in words)” value (E. coli GmhA) is reported as “low nanomolar range”, the IC50 (E. coli GmhA) is reported as 16 ± 6 nM and the “concentration above which bacterial growth is affected” value ([1]; E. coli culture of the LPS assay) is reported as over 100 µM. The EC50 [1, 6] was over 100 µM.

For `CC[C@H]1OC(=O)[C@H](C)[C@@H](O[C@H]2C[C@@](C)(OC)[C@@H](O)[C@H](C)O2)[C@H](C)[C@@H](O[C@@H]2O[C@H](C)C[C@H](N(C)C)[C@H]2O)[C@](C)(O)C[C@@H](C)C(=O)[C@H](C)[C@@H](O)[C@]1(C)O` [Erythromycin], the MIC (E. coli C7 (O18:K1:H7) [4]; [7]) was 32 µg/mL and the MIC (E. coli C7 (O18:K1:H7) [4]; [8]) was 1 µg/mL.

With `O=C[C@@H](O)[C@@H](O)[C@H](O)[C@H](O)[C@H](O)COP(=O)(O)O` [H7P, D-glycero-D-manno-heptose 7-phosphate] the “LPS profile restoration in gmhA- strain” value (E. coli C7 gmhA-; 300 µM H7P, without G6P (lane 3)) was “restores some full length LPS” and the “LPS profile restoration in gmhA- strain” value (E. coli C7 gmhA-; H7P with UhpT induction by 100 µM glucose-6-phosphate (lane 4)) was “full LPS profile”.

With `CO[C@H]1/C=C/O[C@@]2(C)Oc3c(C)c(O)c4c(O)c(c(/C=N/N5CCN(C)CC5)c(O)c4c3C2=O)NC(=O)/C(C)=C\C=C\[C@H](C)[C@H](O)[C@@H](C)[C@@H](O)[C@@H](C)[C@H](OC(C)=O)[C@@H]1C` [Rifampicin] the “effect on bacterial growth, compound alone” value (E. coli C7 (O18:K1:H7) [5]) was “did not alter at all the bacterial growth”, the MIC (E. coli C7 (O18:K1:H7) [4]; [7]) was 4 µg/mL and the MIC (E. coli C7 (O18:K1:H7) [4]; [8]) was 0.25 µg/mL.

In the case of `COC1O[C@H]([C@H](O)COP(=O)(O)O)[C@@H](O)[C@H](O)[C@H]1O` (stereo partly drawn) [methyl 7-O-phosphoryl-D-glycero-D-gluco-heptopyranoside], the “IC50 values (in words)” value (GmhA) is listed as “low micromolar range” and the “heptosylation inhibition at 1 mM” value (wild-type E. coli strain) is listed as “too high to demonstrate heptosylation inhibition”.
